In PubChem BioAssay AID2060614 (Molecular Pharmacology Branch, DTP, NCI, 2025):

Test system: 598228-144-R-J1-PDC complex spheroids, viability
Test: Anticancer human tumor 598228-144-R-J1-PDC patient-derived serous endometrial adenocarcinoma cell line growth inhibition [CLK]
Details: for IC50: curve of first compound; for viability, T/C: stronger effect = lower value; active means viability on the fitted dose curve at most 10% of control; inactive means the rest
From the text: A high-throughput screen of multi-cell type tumor spheroids was designed to identify active combinations of […] and targeted small molecules. Complex spheroids include a stromal component modeled by human endothelial cells (HUVEC) and fibroblasts modeled by human mesenchymal stem cells (MSCs). The concentration ranges selected for each drug and investigational agent were based upon clinically achievable concentrations if the clinical Cmax of the agent was known.
Compounds. The drugs and investigational agents: cirtuvivint (SM08502; NSC835563), CC-671 (NSC850746), vemurafenib (NSC761431), tapotoclax (NSC804041), sotorasib (NSC818433), adagrasib (NSC831453), MRTX-1133 (NSC836407), BAY2416964 (NSC825713), copanlisib (NSC816437), inavolisib (NSC800729), abemaciclib (NSC768073), osimertinib (NSC779217), entinostat (NSC756642), eltanexor (KPT-8602, NSC794443), venetoclax (NSC766270), ceralasertib (NSC777638), bortezomib (NSC756655), olaparib (NSC753686), talazoparib (NSC767125), alisertib (NSC759677), peposertib (NSC802822), gemcitabine (NSC613327), 5-fluorouracil (NSC19893), SN-38 (NSC673596), oxaliplatin (NSC266046), paclitaxel (NSC125973), and doxorubicin (NSC123127), were obtained from the National Cancer Institute (NCI) Developmental Therapeutics Program Chemical Repository. The FDA-approved anticancer drug set is available from the Developmental Therapeutics Program at https://dtp.cancer.gov/organization/dscb/obtaining/available plates.htm. […] The stock solutions were prepared in dimethyl sulfoxide (DMSO, Sigma-Aldrich, St. Louis, MO, cat. D2650), except for the platinum complexes which were prepared in saline (Quality Biological, Gaithersburg, MD, cat. 114-055-101), at 800-fold the tested concentration and stored at -70 degrees C prior to their use. All drugs and investigational agents were tested over a range starting from a high concentration at or near the clinical Cmax and decreasing in half-log increments. If the clinical Cmax for an agent had not been determined, the highest concentration tested was 10 microM.
Cell Culture. All cells were maintained in an incubator at 37 degrees C and 5% CO2 with 95% humidity. The PDC lines were cultured according to standard operating procedures established by the NCI PDMR. Briefly, all PDCs were thawed and cultured in Matrigel-coated flasks prepared with a working solution of 1X Ham's F-12 nutrient mix, without supplementation (Invitrogen, Waltham, MA, cat. 11765054), 100 U/mL penicillin-streptomycin (Invitrogen, cat. 15140122), and 2.5% Matrigel (Corning Inc., Corning, NY, cat. 354248) for the first three passages. The 947758-054-R-J2-PDC line was cultured in 6B/Colon 1A media, which includes advanced DMEM/F-12 (Thermo Fisher Scientific, cat. 12634028), 10 mM HEPES (Thermo Fisher Scientific, cat. 15630080), 1X GlutaMAX supplement (Thermo Fisher Scientific, cat. 35050061), 0.1 mg/mL primocin (InvivoGen, cat. ant-pm-2), 10% defined fetal bovine serum, heat inactivated (HyClone Laboratories Inc., cat. SH30070.03HI), 1.25 mM N-Acetyl-L-cysteine (Sigma-Aldrich, cat. A9165), 10 mM nicotinamide (Sigma-Aldrich, cat. N0636), 1X B-27 supplement (Thermo Fisher Scientific, cat. 17504044), 1X N-2 supplement (Thermo Fisher Scientific, cat. 17502048), and 10 microM Y-27632 dihydrochloride (Tocris Bioscience, cat. 1254). The 876862-298-R-J1-PDC was cultured in 6E media, which includes all 6B/Colon 1A media components plus 50% L-WRN conditioned media (ATCC, cat. CRL-3276), 50 ng/mL recombinant human EGF recombinant protein (hEGF; Thermo Fisher Scientific, cat. PHG0311), 10 ng/mL recombinant human fibroblast growth factor 10 (hGFG-10; PeproTech, cat. 100-26), 1 ng/mL recombinant human fibroblast growth factor 2 (hFGF-2; PeproTech, cat. 100-18B), and 1 µM prostaglandin E2 (PGE2; Tocris, cat. 2296). The 227483-062-R1-J1-PDC line was cultured in Panc media, containing all 6E components except hFGF-2, with the addition of 500 nM SB-431542 (Selleckchem, cat. S1067) and 10 nM gastrin (Tocris, cat. 3006). […]

[1] = second compound 0.0316 µM, first compound 0.0316 µM
[2] = second compound 0.0316 µM, first compound 0.1 µM
[3] = second compound 0.0316 µM, first compound 0.316 µM
[4] = second compound 0.0316 µM, first compound 1 µM
[5] = second compound 0.0316 µM, first compound 3.16 µM
[6] = second compound 0.0316 µM, first compound 10 µM
[7] = second compound 0.1 µM, first compound 0.0316 µM
[8] = second compound 0.1 µM, first compound 0.1 µM
[9] = second compound 0.1 µM, first compound 0.316 µM
[10] = second compound 0.1 µM, first compound 1 µM
[11] = second compound 0.1 µM, first compound 3.16 µM
[12] = second compound 0.1 µM, first compound 10 µM
[13] = second compound 0.316 µM, first compound 0.0316 µM
[14] = second compound 0.316 µM, first compound 0.1 µM
[15] = second compound 0.316 µM, first compound 0.316 µM
[16] = second compound 0.316 µM, first compound 1 µM
[17] = second compound 0.316 µM, first compound 3.16 µM
[18] = second compound 0.316 µM, first compound 10 µM
[19] = second compound 1 µM, first compound 0.0316 µM
[20] = second compound 1 µM, first compound 0.1 µM
[21] = second compound 1 µM, first compound 0.316 µM
[22] = second compound 1 µM, first compound 1 µM
[23] = second compound 1 µM, first compound 3.16 µM
[24] = second compound 1 µM, first compound 10 µM
[25] = second compound 3.16 µM, first compound 0.0316 µM
[26] = second compound 3.16 µM, first compound 0.1 µM
[27] = second compound 3.16 µM, first compound 0.316 µM
[28] = second compound 3.16 µM, first compound 1 µM
[29] = second compound 3.16 µM, first compound 3.16 µM
[30] = second compound 3.16 µM, first compound 10 µM
[31] = second compound 10 µM, first compound 0.0316 µM
[32] = second compound 10 µM, first compound 0.1 µM
[33] = second compound 10 µM, first compound 0.316 µM
[34] = second compound 10 µM, first compound 1 µM
[35] = second compound 10 µM, first compound 3.16 µM
[36] = second compound 10 µM, first compound 10 µM
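Further: spheroids exposed to compounds for seven days before readout.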
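Wherever viability, T/C is given: 100% = DMSO vehicle control wells.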

C=CC(=O)N1CCN(c2nc(=O)n(-c3c(C)ccnc3C(C)C)c3nc(-c4c(O)cccc4F)c(F)cc23)C(C)C1 (centres undefined) + CN1CCN(c2cc(C(=O)Nc3cc4cc(-c5cnn(C)c5)ccc4cn3)ccn2)CC1
> 10000 nM: IC50 (second compound 0.0316 µM) | IC50 (second compound 0.1 µM)
active: viability, T/C [19] 1.67% | viability, T/C [20] 1.68% | viability, T/C [21] 2.05% | viability, T/C [22] 2.47% | viability, T/C [23] 2.38% | viability, T/C [24] 1.47% | viability, T/C [25] 1.63% | viability, T/C [26] 3.15% | viability, T/C [27] 2.36% | viability, T/C [28] 2.16% | viability, T/C [29] 3.18% | viability, T/C [30] 4.16% | viability, T/C [31] 0.96% | viability, T/C [32] 1.09% | viability, T/C [33] 2.11% | viability, T/C [34] 1.48% | viability, T/C [35] 4.19% | viability, T/C [36] 1.94%
inactive: viability, T/C [1] 128% | viability, T/C [2] 130% | viability, T/C [3] 121% | viability, T/C [4] 138% | viability, T/C [5] 159% | viability, T/C [6] 128% | viability, T/C [7] 128% | viability, T/C [8] 122% | viability, T/C [9] 132% | viability, T/C [10] 160% | viability, T/C [11] 162% | viability, T/C [12] 121% | viability, T/C [13] 20.6% | viability, T/C [14] 21.9% | viability, T/C [15] 20.1% | viability, T/C [16] 24.2% | viability, T/C [17] 25.9% | viability, T/C [18] 18.4%
< 31.6 nM: IC50 (second compound 0.316 µM) | IC50 (second compound 1 µM) | IC50 (second compound 3.16 µM) | IC50 (second compound 10 µM)

COC1C=CCC(C)C(C)S(=O)(=O)NC(=O)c2ccc3c(c2)N(CC2CCC21)CC1(CCCc2cc(Cl)ccc21)CO3 (centres undefined) + CN1CCN(c2cc(C(=O)Nc3cc4cc(-c5cnn(C)c5)ccc4cn3)ccn2)CC1
4710 nM: IC50 (second compound 0.0316 µM)
5350 nM: IC50 (second compound 0.1 µM)
active: viability, T/C [19] 1.74% | viability, T/C [20] 1.81% | viability, T/C [21] 3.02% | viability, T/C [22] 1.14% | viability, T/C [23] 1.71% | viability, T/C [24] 4.93% | viability, T/C [25] 1.85% | viability, T/C [26] 3.92% | viability, T/C [27] 1.47% | viability, T/C [28] 1.24% | viability, T/C [29] 2.51% | viability, T/C [30] 3.08% | viability, T/C [31] 0.94% | viability, T/C [32] 0.82% | viability, T/C [33] 0.72% | viability, T/C [34] 0.85% | viability, T/C [35] 2.37% | viability, T/C [36] 3.73%
inactive: viability, T/C [1] 128% | viability, T/C [2] 107% | viability, T/C [3] 85.1% | viability, T/C [4] 75% | viability, T/C [5] 69.2% | viability, T/C [6] 29.5% | viability, T/C [7] 122% | viability, T/C [8] 111% | viability, T/C [9] 86% | viability, T/C [10] 76.9% | viability, T/C [11] 65.5% | viability, T/C [12] 36.4% | viability, T/C [13] 15.7% | viability, T/C [14] 18.8% | viability, T/C [15] 16.8% | viability, T/C [16] 16.6% | viability, T/C [17] 20.5% | viability, T/C [18] 18.9%
< 31.6 nM: IC50 (second compound 0.316 µM) | IC50 (second compound 1 µM) | IC50 (second compound 3.16 µM) | IC50 (second compound 10 µM)
